Source: patent US20090326196A1 (priority 2006, published 2009)
Square brackets hold non-standard residues; d marks the D form. Peptide text beside a SMILES is read from it. Leu(5,5,5,5',5',5'-F6) = N[C@@H](CC(C(F)(F)F)C(F)(F)F)C(=O)O

Columns and labels:
[1] = target: T1, trypsin (from bovine pancreas, EC 3.4.21.4) (Bos taurus, UniProt P00760); experiment: in vitro; format: in vitro ADME
T1 construct: trypsin (from bovine pancreas, EC 3.4.21.4); from tissue; host or cells: bovine pancreas
T1 sequence (P00760 24-246): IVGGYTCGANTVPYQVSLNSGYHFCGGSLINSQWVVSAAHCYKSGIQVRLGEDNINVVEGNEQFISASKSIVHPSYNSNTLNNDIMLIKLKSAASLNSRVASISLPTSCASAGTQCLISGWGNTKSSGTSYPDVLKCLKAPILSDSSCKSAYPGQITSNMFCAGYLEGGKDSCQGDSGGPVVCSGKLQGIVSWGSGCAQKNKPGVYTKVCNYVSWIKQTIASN
Description: The proteolytic stability of peptides towards trypsin (from bovine pancreas, EC 3.4.21.4) was determined by an analytical RP-HPLC assay. […] The enzyme concentration (in 1 mM HCl) was determined by absorbance at 280 nm. […] The amount of enzyme was optimized so that kinetics of proteolytic reactions could be assayed by RP-HPLC (detection at 230 nm). The peptides were incubated with trypsin at 37° C. over a period of 3 h. Aliquots (10 μL) were taken at different reaction times, diluted with 0.2% TFA (440 μL) and stored at −80° C. […] The remaining full-length peptide concentration was normalized with respect to the initial concentration.
where A is the normalized concentration of peptides; k is the pseudo first order rate constant; t is the reaction time in mins; and [A]0 is the initial concentration of peptides. Each fragment cleaved from the full-length peptides was identified by ESI-MS so that cleavage patterns could be established and compared.

[2] = target: DPP IV (from porcine kidney, EC 3.4.14.5) (Sus scrofa, UniProt P22411); details: for hydrolysis products by RP-HPLC (FIG. 38): F8: 48 h at 20 U/L and 1 h at 200 U/L, F89: 20 and 60 mins; for fragments detected after incubation with DPP IV: after 24 h incubation
Description: Proteolytic Stability. […] DPP IV has a relative specific requirement for substrate residues at P2, P1, P1′ and P2′ positions regarding the scissile Ala-Glu amide bond. Especially, at P1 position, Pro and Ala are highly favored. […] The proteolytic stability of peptides towards DPP IV (from porcine kidney, EC 3.4.14.5) was determined by analytical RP-HPLC assay (detection at 230 nm). A chromogenic substrate, Gly-Pro-p-nitroanilide, was employed to calibrate specific activity by measuring absorbance at 410 nm using Δε=8800 M^−1·cm^−1 in 100 mM Tris-HCl, pH 8.0. […] Reactions were quenched with 600 μL of 0.2% TFA at time intervals and stored on dry ice until the analysis. An analytical C18 column [J. T. Baker C18, 5 μm, 4 mm×250 mm] was used for separation and quantitation of intact and digested peptides with a binary solvent system can/H2O/0.1% TFA. First order rate constants were obtained as the fitted value±one standard deviation by fitting with the equation: […]
where A is the concentration of peptides; k the first order rate constant; t the reaction time in min; and [A]0 the initial concentration of peptides. The fragments derived from the full-length peptides were manually collected and identified by ESI-MS.

[3] = tested on: human red blood cells (hRBC); format: cell-based
Description: The selectivity with which the peptides are able to lyse bacterial cells compared to mammalian cells was interrogated by a hemolysis assay against human red blood cells (hRBC). […] Our results are consistent with this trend.
Fresh human red blood cells (hRBCs) were centrifuged at 3,500 rpm and washed with PBS buffer until the supernatant was clear. The hRBCs were then resuspended and diluted to a final concentration of 1% (v/v) in PBS and stored at 4° C. […] An aliquot (50 μL) of supernatant was transferred to a new 96-well plate containing 50 μL H2O in each well. The absorbance at 415 nm was measured using a plate reader. Wells containing melittin at 100-400 μg/mL served as positive controls, and wells containing only buffer and hRBCs served as negative controls. The percentage hemolysis was calculated using the equation:
where complete hemolysis is defined as the average absorbance of all wells containing 100-400 μg/[…] melittin.

[4] = tested on: trypsin (from bovine pancreas, EC 3.4.21.4); experiment: 1 μg trypsin in 200 μL of PBS buffer (pH 7.4, 10 mM PO4^3−, 150 mM NaCl); details: 37° C., up to 3 h
[5] = tested on: DPP IV (from porcine kidney, EC 3.4.14.5); experiment: DPP IV 20 unit/L in 50 mM Tris-HCl, 1 mM EDTA, pH 7.6; details: 37° C., up to 48 h
[6] = tested on: trypsin (from bovine pancreas, EC 3.4.21.4); experiment: 0.5 μg trypsin in 200 μL of PBS buffer (pH 7.4, 10 mM PO4^3−, 150 mM NaCl); details: 37° C., up to 3 h

Sequence of DPP IV (from porcine kidney, EC 3.4.14.5) (Sus scrofa, UniProt P22411) (P22411 whole entry, the tested form may be a part): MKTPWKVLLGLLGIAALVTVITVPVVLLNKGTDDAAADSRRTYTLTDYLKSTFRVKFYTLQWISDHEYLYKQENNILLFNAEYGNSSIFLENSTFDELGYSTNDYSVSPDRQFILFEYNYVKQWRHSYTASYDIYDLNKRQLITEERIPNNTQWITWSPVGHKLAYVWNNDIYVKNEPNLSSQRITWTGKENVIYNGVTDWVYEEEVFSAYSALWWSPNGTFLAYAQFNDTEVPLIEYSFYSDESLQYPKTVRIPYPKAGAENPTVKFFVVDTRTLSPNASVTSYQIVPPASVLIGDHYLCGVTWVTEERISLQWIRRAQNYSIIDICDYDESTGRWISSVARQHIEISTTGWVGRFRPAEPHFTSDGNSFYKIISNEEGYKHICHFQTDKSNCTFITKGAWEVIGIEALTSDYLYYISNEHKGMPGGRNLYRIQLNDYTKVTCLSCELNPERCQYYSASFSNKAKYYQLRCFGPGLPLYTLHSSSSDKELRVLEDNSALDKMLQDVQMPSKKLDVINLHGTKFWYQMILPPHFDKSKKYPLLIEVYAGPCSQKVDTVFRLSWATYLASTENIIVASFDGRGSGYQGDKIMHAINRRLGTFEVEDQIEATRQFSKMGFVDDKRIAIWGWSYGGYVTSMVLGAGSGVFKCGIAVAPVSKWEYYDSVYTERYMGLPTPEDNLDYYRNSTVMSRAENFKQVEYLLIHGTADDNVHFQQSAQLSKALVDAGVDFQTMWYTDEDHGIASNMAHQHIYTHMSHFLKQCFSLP

With `CC(C)C[C@H](NC(=O)CNC(=O)[C@H](C)NC(=O)[C@@H](N)CCCNC(=N)N)C(=O)N[C@@H](CCC(N)=O)C(=O)N[C@@H](Cc1ccccc1)C(=O)N1CCC[C@H]1C(=O)N[C@H](C(=O)NCC(=O)N[C@@H](CCCNC(=N)N)C(=O)N[C@H](C(=O)N[C@@H](Cc1c[nH]cn1)C(=O)N[C@@H](CCCNC(=N)N)C(=O)N[C@@H](CC(C(F)(F)F)C(F)(F)F)C(=O)N[C@@H](CC(C(F)(F)F)C(F)(F)F)C(=O)N[C@@H](CCCNC(=N)N)C(=O)N[C@@H](CCCCN)C(=O)O)C(C)C)C(C)C` [BII5F2] (H-RAGLQFPVGRVHR[Leu(5,5,5,5',5',5'-F6)][Leu(5,5,5,5',5',5'-F6)]RK-OH) the “fold more resistant to hydrolysis by trypsin” value [1] was about 3 fold.
`CC[C@H](C)[C@H](NC(=O)[C@H](Cc1ccccc1)NC(=O)[C@H](CCC(=O)O)NC(=O)[C@H](CCCCN)NC(=O)[C@H](C)NC(=O)[C@H](C)NC(=O)[C@H](CCC(N)=O)NC(=O)CNC(=O)[C@H](CCC(=O)O)NC(=O)[C@H](CC(C)C)NC(=O)[C@H](Cc1ccc(O)cc1)NC(=O)[C@H](CO)NC(=O)[C@H](CO)NC(=O)[C@@H](NC(=O)[C@H](CC(=O)O)NC(=O)[C@H](CO)NC(=O)[C@@H](NC(=O)[C@H](Cc1ccccc1)NC(=O)[C@@H](NC(=O)CNC(=O)[C@H](CCC(=O)O)NC(=O)[C@H](CC(C(F)(F)F)C(F)(F)F)NC(=O)[C@@H](N)Cc1cnc[nH]1)[C@@H](C)O)[C@@H](C)O)C(C)C)C(=O)N[C@@H](C)C(=O)N[C@@H](Cc1c[nH]c2ccccc12)C(=O)N[C@@H](CC(C)C)C(=O)N[C@H](C(=O)N[C@@H](CCCCN)C(=O)NCC(=O)N[C@@H](CCCNC(=N)N)C(N)=O)C(C)C` [Peptide F8] was tested, and the “hydrolysis products by RP-HPLC (FIG. 38)” value [2] was “No detectable hydrolysis products” and the “fragments detected after incubation with DPP IV” value [2] was “no fragments were detected”.
`CC[C@H](C)[C@H](NC(=O)[C@H](Cc1ccccc1)NC(=O)[C@H](CCC(=O)O)NC(=O)[C@H](CCCCN)NC(=O)[C@H](C)NC(=O)[C@H](C)NC(=O)[C@H](CCC(N)=O)NC(=O)CNC(=O)[C@H](CCC(=O)O)NC(=O)[C@H](CC(C)C)NC(=O)[C@H](Cc1ccc(O)cc1)NC(=O)[C@H](CO)NC(=O)[C@H](CO)NC(=O)[C@@H](NC(=O)[C@H](CC(=O)O)NC(=O)[C@H](CO)NC(=O)[C@@H](NC(=O)[C@H](Cc1ccccc1)NC(=O)[C@@H](NC(=O)CNC(=O)[C@H](CC(C(F)(F)F)C(F)(F)F)NC(=O)[C@H](C)NC(=O)[C@@H](N)Cc1c[nH]cn1)[C@@H](C)O)[C@@H](C)O)C(C)C)C(=O)N[C@@H](C)C(=O)N[C@@H](Cc1c[nH]c2ccccc12)C(=O)N[C@@H](CC(C)C)C(=O)N[C@H](C(=O)N[C@@H](CCCCN)C(=O)NCC(=O)N[C@@H](CCCNC(=N)N)C(N)=O)C(C)C` [Peptide F9] was tested, and the “resistance to DPP IV, in words” value ([2]; hexafluoroleucine at P1′ and P2′ positions) was “moderate enhanced resistance”.
`CC[C@H](C)[C@H](NC(=O)[C@H](Cc1ccccc1)NC(=O)[C@H](CCC(=O)O)NC(=O)[C@H](CCCCN)NC(=O)[C@H](C)NC(=O)[C@H](C)NC(=O)[C@H](CCC(N)=O)NC(=O)CNC(=O)[C@H](CCC(=O)O)NC(=O)[C@H](CC(C)C)NC(=O)[C@H](Cc1ccc(O)cc1)NC(=O)[C@H](CO)NC(=O)[C@H](CO)NC(=O)[C@@H](NC(=O)[C@H](CC(=O)O)NC(=O)[C@H](CO)NC(=O)[C@@H](NC(=O)[C@H](Cc1ccccc1)NC(=O)[C@@H](NC(=O)CNC(=O)[C@H](CC(C(F)(F)F)C(F)(F)F)NC(=O)[C@H](CC(C(F)(F)F)C(F)(F)F)NC(=O)[C@@H](N)Cc1cnc[nH]1)[C@@H](C)O)[C@@H](C)O)C(C)C)C(=O)N[C@@H](C)C(=O)N[C@@H](Cc1c[nH]c2ccccc12)C(=O)N[C@@H](CC(C)C)C(=O)N[C@H](C(=O)N[C@@H](CCCCN)C(=O)NCC(=O)N[C@@H](CCCNC(=N)N)C(N)=O)C(C)C` [Peptide F89] was tested, and the “hydrolysis products by RP-HPLC (FIG. 38)” value [2] was “No detectable hydrolysis products” and the “fragments detected after incubation with DPP IV” value [2] was “no fragments were detected”.
With `CC[C@H](C)[C@H](NC(=O)CN)C(=O)NCC(=O)N[C@@H](CCCCN)C(=O)N[C@@H](Cc1ccccc1)C(=O)N[C@@H](CC(C(F)(F)F)C(F)(F)F)C(=O)N[C@@H](Cc1cnc[nH]1)C(=O)N[C@@H](C)C(=O)N[C@@H](C)C(=O)N[C@@H](CCCCN)C(=O)N[C@@H](CCCCN)C(=O)N[C@@H](Cc1ccccc1)C(=O)N[C@@H](C)C(=O)N[C@@H](CCCCN)C(=O)N[C@@H](C)C(=O)N[C@@H](Cc1ccccc1)C(=O)N[C@H](C(=O)N[C@@H](C)C(=O)N[C@@H](CCC(=O)O)C(=O)N[C@@H](CC(C(F)(F)F)C(F)(F)F)C(=O)N[C@@H](CCSC)C(=O)N[C@@H](CC(N)=O)C(=O)N[C@@H](CO)C(N)=O)C(C)C` [Peptide M2F2] (H-GIGKF[Leu(5,5,5,5',5',5'-F6)]HAAKKFAKAFVAE[Leu(5,5,5,5',5',5'-F6)]MNS-NH2) the “hemolytic activity relative to parent peptide, in words” value [3] was “slightly more hemolytic” and the “more stable to proteolysis by a factor, relative to M2” value [1] was about 1.2.
With GIGKFLHAAKKFAKAFVAEIMNS the fragment found [4] was “M2 (1-14), first_seen”.
For GIGKFXHAAKKFAKAFVAEXMNS, the fragment found [4] was “M2F2 (1-14), first_seen”.
HAXGTFTSDVSSYLEGQAAKEFIAWLVKGR was tested, and the fragment found [5] was “corresponding peptide fragment GLP-1 (9-36) amide, major”.
With HXEGTFTSDVSSYLEGQAAKEFIAWLVKGR the not cleaved [5] was “no fragments were detected after 24 h incubation”.
HXXGTFTSDVSSYLEGQAAKEFIAWLVKGR was tested, and the not cleaved [5] was “no fragments were detected after 24 h incubation”.
With TRSSRAGLQFPVGRVHRXXRK the cleaved bond [6] was “initial P1 site of cleavage BII1F2 (R14), first_seen” and the fragment found [6] was “BII1F2 (6-21), first_seen”.
In the case of “buforin II[1-21] [BII1, reference compound]”, the “initial P1 site of cleavage” value [1] is reported as “R17”.
“magainin 2 [Peptide M2, reference compound]” was tested, and the “time to complete hydrolysis” value [1] was 33 min.
